Peptide text beside a SMILES is read from it.
Parameters: AUC: unit not given beside the values
Description: The pH of simulated gastric fluid (SGF, 0.15 M NaCl, pH 2.5) was increased to 7.5 with […] (40 mM), and the following compounds were added to adjust the pH to 6.8 and simulate a duodenal-jejunal environment and create simulated small intestinal fluid (SIF): (i) a bile salt mixture containing equimolar quantities (0.125 M) of sodium taurocholate and glycodeoxycholic acid in NaHC03 (1 M), (ii) solutions of pancreatin from porcine pancreas (9 mg/mL) in water was prepared and added at approximately physiological ratios. The pH was adjusted to 6.8 with HCl (0.1 M). Peptides were dissolved in SIF at a final peptide concentration of 50 µM. Aliquots (1 mL) were prepared for sampling at different time points. Simulated intestinal digestion was carried out at 37°C, and aliquots (1 mL) were taken at 0, 5, 15, and 60 min after the start of the experiment. After peptide hydrolysis, digestive enzymes were inactivated at 95°C for 15 min and samples were cooled immediately on ice water and stored at -20°C until further analysis.
Quantification of dipeptides derived from digestion were performed using a liquid chromatography multiple reaction ion monitoring-mass spectrometry (LC-MRM-MS) method as described van Platerink CJ, Janssen HG, Horsten R, Haverkamp J. Quantification of ACE inhibiting peptides in human plasma using high performance liquid chromatography-mass spectrometry. J Chromatogr B Analyt Technol Biomed Life Sci 2006,830:151-157. Peptide separation was performed on an Atlantis Hilic Silica column (2.1 x 150 mm, 3 µm particle size) and a Micromass Quattro-II (Milford MA, USA) with HP1100LC system (Hewlett-Packard, USA). The gradient started at 100% 0.1 % trifluoro acetic acid in Milli-Q water and ended at 70% 0.1% trifluoro acetic acid in acetonitrile. To support the ionization, a 70/30 mixture of propionic acid and propanol-2 was added postcolumn at a flow rate of […]. All analyses were conducted on an Alliance 2795 HPLC (Waters, Milford MA, USA) combined with a Quattro Premier triple quadrupole mass spectrometer from the same supplier.
An intestinal stability data set consisting of 228 dipeptides was generated based on the results from the simulated digestion experiments. The area under the time - peptide concentration curve was calculated and used for further analysis and modelling. An ACE inhibitory dipeptide database consisting of 228 dipeptides was constructed.
For each peptide the relative stability (in % of initial dipeptide concentration) was plotted against time and the area under the curve (AUC) was calculated.

| Compound | AUC | intestinal stability (in words) |
| --- | --- | --- |
| C[C@H](NC(=O)[C@@H](N)CS)C(=O)O [CA] (H-Cys-Ala-OH) | 0 |  |
| C[C@@H](O)[C@H](NC(=O)[C@@H](N)CS)C(=O)O [CT] (H-Cys-Thr-OH) |  | high intestinal stability |
| C[C@@H](O)[C@H](NC(=O)[C@@H](N)CC(=O)O)C(=O)O [DT] (H-Asp-Thr-OH) |  | high intestinal stability |

Now from value to molecule:

| AUC | intestinal stability (in words) | Compound |
| --- | --- | --- |
|  | high intestinal stability | N[C@@H](Cc1c[nH]c2ccccc12)C(=O)N[C@@H](CO)C(=O)O [WS] (H-Trp-Ser-OH) |
|  | high intestinal stability | C[C@@H](O)[C@H](NC(=O)[C@@H](N)Cc1c[nH]c2ccccc12)C(=O)O [WT] (H-Trp-Thr-OH) |
|  | high intestinal stability | N[C@@H](Cc1c[nH]c2ccccc12)C(=O)N[C@@H](CC(=O)O)C(=O)O [WD] (H-Trp-Asp-OH) |

Source: patent EP2161028B1, “Food product comprising dipeptides having antihypertensive properties” (Unilever N.V., priority 2008, dated 2011)
